From US11554182B2, “Macrocyclic complexes of alpha-emitting radionuclides and their use in targeted radiotherapy of cancer” (CORNELL UNIVERSITY, priority 2017, dated 2023)

Legend:
[1] = Stability of [^225Ac(macropa)]^+ in human serum (radio-TLC); type: in vitro ADME
Experimental: […]. [^225Ac(macropa)]^+ and [^225Ac(DOTA)]^− were prepared using 10^−5 M and 10^−3 M stock solutions (10 μL) of macropa and DOTA, respectively, to give final ligand concentrations of 5.9×10^−7 M (macropa) and 5.9×10^−5 M (DOTA). After confirming a radiochemical yield of >90% by TLC using 0.4 M sodium citrate (pH 4) containing 10% MeOH as the mobile phase, 160 μL of human serum (an equal volume based on labeling reaction volume) were added to each radiolabeled solution. A control solution was also prepared in which water was substituted for ligand. The solutions were monitored over the course of 8 days by iTLC. The plates were developed with EDTA (50 mM, pH 5) as the eluent. Under these conditions, [^225Ac(macropa)]^+ and [^225Ac(DOTA)]^− complexes remained at the baseline (RF=0) and any ^225Ac (^225Ac-EDTA) that had been transchelated by serum migrated with the solvent front (RF=1). Percent of complex remaining intact was calculated.
The long half-life of ^225Ac necessitates its stable complex retention in vivo to avoid off-target damage to normal tissues arising from the release of free ^225Ac^3+. Furthermore, the stability of ^225Ac complexes against transmetalation and transchelation needs to be high. To determine the kinetic inertness, [^225Ac(macropa)]^+ was challenged with La^3+ because of the established high affinity of macropa for this metal ion. […]

[2] = Kinetic inertness of ^225Ac complex: transmetalation challenge with La^3+; type: physicochemical; details: 50-fold excess of La^3+, macropa 0.59 μM, RT, over 7 days
Experimental: General. Stock solutions of La(NO3)3 (0.001 M or 0.1 M) were prepared in H2O. To the radiolabeled samples containing macropa (10 μL of 10^−5 M stock; 1.0×10^−10 moles) or DOTA (10 μL of 10^−3 M stock; 1.0×10^−8 moles) and ^225Ac (10 μL, 26 kBq) in NH4OAc buffer (pH 6, 0.15 M, 150 μL), a 50-fold mole excess of La^3+ was added (5 μL of 0.001 M or 0.1 M stock were added to solutions containing macropa and DOTA, respectively). The solutions were kept at room temperature and analyzed by iTLC at several time points over the course of 8 days. The iTLC plates were developed using citric acid (0.05 M, pH 5) as the eluent. Under these conditions, [^225Ac(macropa)]^+ and [^225Ac(DOTA)]^− remained at the baseline (RF=0) and any unchelated ^225Ac (^225Ac-citrate) migrated with the solvent front (RF=1). Percent of complex remaining intact was calculated by integrating area under the peaks on the radiochromatogram and dividing the counts associated with the ^225Ac-complex (RF=0) by the total counts integrated along the length of the iTLC plate.
The long half-life of ^225Ac necessitates its stable complex retention in vivo to avoid off-target damage to normal tissues arising from the release of free ^225Ac^3+. Furthermore, the stability of ^225Ac complexes against transmetalation and transchelation needs to be high. […]

SMILES: O=C([O-])c1cccc(CN2CCOCCOCCN(Cc3cccc(C(=O)[O-])n3)CCOCCOCC2)n1.[225Ac+3] [[^225Ac(macropa)]^+]
- time ^225Ac^3+ remains complexed in human serum [1]: at least 8 days
- ^225Ac complex remaining intact [2]: 98%
